This note sets out measurements from PMC2802518 (Biochemistry, 2009).

The target of the assay is T1, tCD14-His6 (truncated CD14) (Homo sapiens, UniProt P08571).
T1 sequence (P08571 20-175 limits assumed): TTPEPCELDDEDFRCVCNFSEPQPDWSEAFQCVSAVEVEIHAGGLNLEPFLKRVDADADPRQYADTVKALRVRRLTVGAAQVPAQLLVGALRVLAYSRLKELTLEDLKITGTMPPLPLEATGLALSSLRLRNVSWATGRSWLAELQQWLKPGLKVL
The format is binding.
In turn, `CCCCCCCCCCCCCCO[C@H]1[C@@H](OC)O[C@H](C[N+](C)(C)C2CCCC2)[C@@H](O)[C@@H]1OCCCCCCCCCCCCCC` [compound 1, methyl 6-deoxy-6-N-dimethyl-N-cyclopentylamonium-2,3-di-O-tetradecyl-α-D-glucopyranoside] gave an IC50 of 800 nM.
The same measure for `CCCCCCCCCCCCCCO[C@H]1[C@@H](OC)O[C@H](CN)[C@@H](O)[C@@H]1OCCCCCCCCCCCCCC` [compound 2, methyl 6-deoxy-6-amino-2,3-di-O-tetradecyl-α-D-glucopyranoside]: 2000 nM; for `CCCCCCCCCCCCCCOc1ccc(C[N+](C)(C)C2CCCC2)cc1OCCCCCCCCCCCCCC` [compound 3, N-(3,4-bis-tetradecyloxy-benzyl)-N-cyclopentyl-N,N-dimethylammonium]: 400 nM.

For orientation: IC50 means the concentration needed to halve the response being measured. A lower IC50 goes with inhibition by little substance.
